Where a SMILES comes first, the peptide text is derived from it.
SMILES: CC(C)CC(=O)OCC(=O)C1(O)C(C)CC2C3CCC4=CC(=O)C=CC4(C)C3(F)C(O)CC21C (stereo not given)
- logP: 3.8

SMILES: CC(C)N(CC1CN=C(N)O1)C(C)C (stereo not given)
- logP: 0.98

SMILES: CSc1cnc(C2=NC(C)(C(C)C)C(=O)N2)c(C(=O)O)c1 (stereo not given)
- logP: 0.75

SMILES: CCOP(=O)(OCC)C(C)(C)[N+]([O-])=Cc1ccncc1
- logP: 0.32

SMILES: COc1ccc(C2Cc3c(OC)cccc3N(CCN(C)C)C(=O)C2C)cc1 (stereo not given)
- logP: 4.6

SMILES: CC(C)(C)NCC(O)COc1cccc2c1CCN(C=O)C2 (stereo not given)
- logP: 1.3

SMILES: CCC(CC)C(=O)NS(=O)(=O)c1ccc(C(F)(F)F)cc1[N+](=O)[O-]
- logP: 3.57

SMILES: COc1ccccc1OCCN(C)C
- logP: 1.42

SMILES: OCCCCNc1ncnc2c1ncn2C1OC(CO)C(O)C1O (stereo not given)
- logP: -0.62

SMILES: Cc1coc2cc3oc(=O)ccc3c(C)c12
- logP: 2.79

SMILES: Cc1c(C)c2cc3c(C)coc3c(C)c2oc1=O
- logP: 3.62

SMILES: Nc1ccc(CNC(=O)C2CCCN2C(=O)C(N)C(C2CCCCC2)C2CCCCC2)cn1 (stereo not given)
- logP: 4.61

SMILES: COC(=O)C(C)NP(=O)(OCC1C=CC(n2cc(C)c(=O)[nH]c2=O)O1)Oc1cccc(I)c1 (stereo not given)
- logP: 1.78

SMILES: O=C1C=C(c2ccc(Cl)cc2)C(=O)N1c1ccc(Cl)cc1
- logP: 3

SMILES: CNC(=S)NN=C(C)CSCC(C)=NNC(=S)NC
- logP: 1.38

SMILES: O=C1c2cc(O)ccc2OCN1CCO[N+](=O)[O-]
- logP: 1.63

SMILES: CSCCC(NC(=O)C(Cc1ccccc1)NC(=O)CNC(=O)CNC(=O)C(N)Cc1ccc(O)cc1)C(=O)O (stereo not given)
- logP: -1.39

SMILES: CCCCCC(=O)OCC(=O)C1(O)C(C)CC2C3CCC4=CC(=O)C=CC4(C)C3(F)C(O)CC21C (stereo not given)
- logP: 4.3

SMILES: COc1ccc(Br)cc1CNC1CCCNC1c1ccccc1 (stereo not given)
- logP: 4.2

SMILES: Cc1cc2oc(=O)cc(C)c2c2occc12
- logP: 2.84

SMILES: Nc1nnnn1-c1ccc(Cl)cc1
- logP: 1.41

SMILES: NC(Cc1ccc(O)cc1)C(=O)NC(Cc1ccc(O)cc1)C(=O)O (stereo not drawn) (H-Tyr-Tyr-OH; configuration not given here)
- logP: -1.87

SMILES: CC(C)CC(NC(=O)C(Cc1ccccc1)NC(=O)CNC(=O)C(NC(=O)C(N)Cc1ccc(O)cc1)C(C)O)C(=O)O (stereo not given) (H-YTGFL-OH; configuration not given here)
- logP: -1.18

SMILES: O=C1N=C(N2CCOCC2)CN1Cc1ccccc1Cl
- logP: 1

SMILES: CC(C)NC(=O)N1C(=O)N(C)CC1O (stereo not given)
- logP: 0.96

SMILES: Nc1ncnc2c1ncn2C1OC(CCl)C(O)C1O (stereo not given)
- logP: -0.06

SMILES: CC(C)(C)NCC(COc1nsnc1N1CCOCC1)OC(=O)C1CC1 (stereo not given)
- logP: 3.54

SMILES: CC1(C)N(O)C(c2ccc([N+](=O)[O-])cc2)=[N+]([O-])C1(C)C
- logP: 1.68

SMILES: CC1=CC(=C2C(=O)c3ccccc3C2=O)C=C(C)N1CCCNC(=O)N(CCCl)N=O
- logP: 2.84

SMILES: CCC(=O)Nc1ccc2cc3ccc(N)c(CO)c3nc2c1
- logP: 1.55

SMILES: COc1ccc2c(c1)COP(=O)(OCC1C=CC(n3cc(C)c(=O)[nH]c3=O)O1)O2 (stereo not given)
- logP: 0.36

SMILES: COc1ccc(C2Cc3cc(OC(F)F)ccc3N(CCN(C)C)C(=O)C2OC(C)=O)cc1 (stereo not given)
- logP: 3.8

SMILES: S=c1nccc[nH]1
- logP: -1.11

SMILES: CC(C)=CC1C(C(=O)OCc2cccc(S(C)(=O)=O)c2)C1(C)C (stereo not given)
- logP: 3.83

SMILES: CCON=C(CC)C1=C(O)CC(c2cccc(Oc3ccc(Cl)c(Cl)c3)c2)CC1=O (stereo not given)
- logP: 6.32

SMILES: COc1ccc(F)cc1CNC1CCCNC1c1ccccc1 (stereo not given)
- logP: 3.5

SMILES: c1ccc2c(c1)OCC(c1ncc[nH]1)O2 (stereo not given)
- logP: 1.76

SMILES: COc1cc2ncnc(Nc3ccccc3F)c2cc1OC
- logP: 2.2

SMILES: CCCc1nc(N2CCOCC2)nc(N(C)C(=O)c2ccccc2)n1
- logP: 2.01

SMILES: Clc1ccc(-c2noc(N3CCOCC3)n2)cc1
- logP: 3.1

SMILES: CC(C)c1cccc(O)c(=O)c1
- logP: 1.82

SMILES: CCC(C)(C)c1ccc(OCC2CN=C(N)O2)cc1 (stereo not given)
- logP: 3.69

SMILES: CCN(CC)CC(=O)Nc1ccccc1
- logP: 2.49

SMILES: CC(C)CC(NC(=O)C1CCCN1)C(=O)O (stereo not drawn) (H-Pro-Leu-OH; configuration not given here)
- logP: -2.41

SMILES: CC1(C(Cl)Cl)C2CC(Cl)(Cl)C1(C(Cl)Cl)CC2(Cl)Cl (stereo not given)
- logP: 5.9

SMILES: CCCNC(C)C(=O)Nc1c(C)csc1C(=O)OC (stereo not given)
- logP: 1.89

SMILES: Cc1cc2c(o1)c(C)cc1c(C)cc(=O)oc12
- logP: 3.28

SMILES: Cc1ccc(C(=O)OCCCn2ccc(=O)c(O)c2C)cn1
- logP: 0.28

SMILES: CCCN(CCCCC(NC(C)=O)C(=O)NCc1ccccc1)C(=O)NCCCl (stereo not given)
- logP: 1.13

SMILES: CSCCC(N)C(=O)NC(Cc1ccc(O)cc1)C(=O)O (stereo not drawn) (H-Met-Tyr-OH; configuration not given here)
- logP: -2.03

SMILES: Cc1cccc(C)c1/C=C/c1c[nH]cn1
- logP: 3.35

SMILES: CCCc1nc(NC(=O)c2ccccc2)nc(N2CCOCC2)n1
- logP: 1.61

SMILES: CNC(=S)OCCn1c([N+](=O)[O-])cnc1C
- logP: 1.12

SMILES: COc1ccc(CCNCC(O)COc2ccc(-c3nccs3)cc2)cc1OC (stereo not given)
- logP: 2.5

SMILES: CC(C)NC(=O)Cn1cccc(O)c1=O
- logP: -0.34

SMILES: CC(C)(C)NC(=O)[C@@H]1CN(Cc2cccnc2)CCN1C[C@@H](O)C[C@@H](Cc1ccccc1)C(=O)N[C@H]1c2ccccc2C[C@H]1O
- logP: 3.49

SMILES: CC12CCC(c3c1ssc3=S)C2(C)C (stereo not given)
- logP: 3.8

SMILES: Cc1ccc(CO)c(C=NNC(=O)c2ccc(C(C)(C)C)cc2)c1O
- logP: 4.73

SMILES: O=C(O)CCCCON=C(c1ccnnc1)c1cccc(C(F)(F)F)c1
- logP: 2.99

SMILES: CC(c1ccccc1)N1CC(N2CCOCC2)=NC1=O (stereo not given)
- logP: 0.8

SMILES: CC(C)CCC(=O)CC1c2ccccc2C(=O)N1c1ccc2ccc(Cl)nc2n1 (stereo not given)
- logP: 4.8

SMILES: O=C(O)Cc1ccccc1Nc1c(F)cccc1F
- logP: 3.57

SMILES: CCc1c(O)c(=O)ccn1CCCCO
- logP: -0.28

SMILES: CC(C)CC(N)C(=O)NC(CC(C)C)C(=O)N1CCCC1C(=O)O (stereo not drawn) (H-Leu-Leu-Pro-OH; configuration not given here)
- logP: -1.58

SMILES: c1ccc(Cn2cccn2)cc1
- logP: 1.78

SMILES: Cn1c2c(c3cc([N+](=O)[O-])ccc31)CCNC2
- logP: 2.07

SMILES: Nc1nnnn1-c1c(Cl)cccc1Cl
- logP: 1.56

SMILES: O=C(O)CCCCCON=C(c1cccc(C(F)(F)F)c1)c1cnccn1
- logP: 3.52

SMILES: COc1cc2ncnc(Nc3cc(F)cc(C(F)(F)F)c3)c2cc1OC
- logP: 4.66

SMILES: Nc1nc(N)c2c(Oc3ccccc3)cccc2n1
- logP: 2.78

SMILES: CC(C)NC(=NC#N)NS(=O)(=O)c1cnccc1NCc1ccccc1
- logP: 1.36

SMILES: CCCCCOCCCNc1[nH]cnc2ncnc1-2
- logP: 2.74

SMILES: CC(C)Nc1nc(N)nc(O)n1
- logP: 1.27

SMILES: CCCCCCNCCO
- logP: 1.67

SMILES: COc1ccc(CCNCC(O)COc2ccc(OCc3ncc[nH]3)cc2)cc1OC (stereo not given)
- logP: 2.6

SMILES: COc1ccc(CCNCC(O)COc2ccc(-c3nc(C)c(Br)[nH]3)cc2)cc1OC (stereo not given)
- logP: 3.9

SMILES: Cc1nc2c3c(c(C(=O)N4CCC4)cn2c1C)CCC(c1ccccc1)O3 (stereo not given)
- logP: 3.4

SMILES: CC(C)CC(N)C(=O)N1CCCC1C(=O)NC(CC(C)C)C(=O)NC(CC(C)C)C(=O)O (stereo not given) (H-LPLL-OH; configuration not given here)
- logP: -0.92

SMILES: CNCc1ccc(C)cc1
- logP: 1.96

SMILES: Cc1c(C(=O)O)cccc1[N+](=O)[O-]
- logP: 2.16

SMILES: Cc1cc2cc3c(C)cc(=O)oc3cc2o1
- logP: 2.82

SMILES: COc1ccc(C2Cc3cc(C(F)(F)F)ccc3N(CCN(C)C)C(=O)C2SC(C)=O)cc1 (stereo not given)
- logP: 5.4

SMILES: O=C1C=C(N2CCOCC2)CN1c1ccc(Cl)cc1
- logP: 1.9

SMILES: CN(C)CCOC(=O)c1ccc(C(F)(F)F)cc1
- logP: 2.88

SMILES: COC(=O)C(C)=CC1C(C(=O)OCc2cccc(C(=O)c3ccccc3)c2)C1(C)C (stereo not given)
- logP: 5.45

SMILES: NC(Cc1ccccc1)C(=O)NC(Cc1c[nH]c2ccccc12)C(=O)O (stereo not given)
- logP: -0.79

SMILES: CN(c1ccc2cc3ccc4c(c3nc2c1)COCN4)S(C)(=O)=O
- logP: 1.54

SMILES: NC(Cc1cc(I)c(OCCc2ccc(O)cc2)c(I)c1)C(=O)O (stereo not given)
- logP: 2

SMILES: CCOP(=O)(OCC)C(C)(C)[N+]([O-])=Cc1ccccn1
- logP: 0.68

SMILES: Cc1cc2ccc(=O)oc2c2c(C)coc12
- logP: 2.88

SMILES: O=C(NC1CCCCCC1)NS(=O)(=O)c1cnccc1NC1CCCCCCC1
- logP: 5.35

SMILES: CCOC(=O)N1COCc2c1ccc1cc3ccc4c(c3nc21)COCN4C(=O)OCC
- logP: 2.5

SMILES: CC(=O)O[C@H]1[C@@H](O)C[C@H](O[C@H]2[C@@H](O)C[C@H](O[C@H]3[C@@H](O)C[C@H](O[C@H]4CC[C@@]5(C)[C@H](CC[C@@H]6[C@@H]5C[C@@H](O)[C@]5(C)[C@@H](C7=CC(=O)OC7)CC[C@]65O)C4)O[C@@H]3C)O[C@@H]2C)O[C@@H]1C
- logP: 2

SMILES: C=CCN(N=O)C(=O)N(CCC)CCCCC(NC(C)=O)C(=O)NCc1ccccc1 (stereo not given)
- logP: 2.11

SMILES: COc1ccc(C(=O)N2CCN(c3ccc4c(c3)CCC(=O)N4)CC2)cc1OC
- logP: 1.04

SMILES: Cc1c(C)c2ccc3occ(C)c3c2oc1=O
- logP: 3.34

SMILES: CC(=O)c1cc(F)c(Cl)cc1Cl
- logP: 3.4

SMILES: NC(Cc1ccccc1)C(=O)NC(Cc1ccccc1)C(=O)O (stereo not drawn) (H-Phe-Phe-OH; configuration not given here)
- logP: -0.85

SMILES: O=C1CN=C(c2ccc(F)cc2)c2ccccc2N1
- logP: 2.38

SMILES: CON=C(C(=O)NC1C(=O)N2C(C(C)OC(=O)OC(C)C)=CCSC12)c1csc(N)n1 (stereo not given)
- logP: 1.37

SMILES: OCc1cnc(O)nc1O
- logP: -1.94

SMILES: O=C(O)CCC(=O)OC1Cc2c(O)cc(O)cc2OC1c1ccc(O)c(O)c1 (stereo not given)
- logP: 1.41

SMILES: CC(C(=O)OC1CCCCC1)S(=O)(=O)c1ccc([N+](=O)[O-])cc1 (stereo not given)
- logP: 2.82

SMILES: COc1ccccc1-n1nnnc1N
- logP: 0.56

SMILES: Cc1ccc(N2CC(N3CCOCC3)=CC2=O)cc1
- logP: 1.4

SMILES: COP(=O)(OC)Oc1c(Cl)cc(C)cc1Cl
- logP: 2.66

SMILES: Cc1cc2c(nc1N)[nH]c1ccccc12
- logP: 2.9

SMILES: O=C1c2ccc(Cl)cc2OCN1CCO[N+](=O)[O-]
- logP: 2.74

SMILES: CCCC(=NOCC)C1=C(O)CC2(CCC(C)C2)OC1=O (stereo not given)
- logP: 3.66

SMILES: O=c1ccc2cc3ccsc3cc2s1
- logP: 2.96

SMILES: O=C1N=C(N2CCOCC2)CN1Cc1ccc(Br)cc1
- logP: 1.4

SMILES: Clc1ccccc1N1CCN(CCn2nc3ccccc3n2)CC1
- logP: 4

SMILES: CC(C)CC(N)C(=O)N1CCCC1C(=O)NC(CC(C)C)C(=O)O (stereo not given)
- logP: -1.56

SMILES: Cc1oc2c(C)cc3c(C)cc(=O)[nH]c3c2c1C
- logP: 3.5

SMILES: CC(Nc1[nH]cnc2ncnc1-2)c1ccccc1 (stereo not given)
- logP: 2.58

SMILES: CCOC(=O)C1=C(C)NC(C)=C(C(=O)OC)C1c1cccc(OC)c1OC (stereo not given)
- logP: 3.58

SMILES: Fc1ccccc1CNc1[nH]cnc2ncnc1-2
- logP: 2.27

SMILES: OCCN1CCN(CCCOn2nnc3ccccc32)CC1
- logP: 0.43

SMILES: C[N+](C)([O-])CC(c1ccccc1)c1ccccc1
- logP: 1.01

SMILES: Cc1ccnc2c1NC(=O)c1cccnc1N2C1CC1
- logP: 1.81

From the OPERA property sets (Mansouri et al. 2018)
